A word on the IC50: it is the point on the concentration scale where inhibition reaches its midpoint. As a reminder, the half-life is how long it takes for the measured level to halve. A lower half-life goes with fast loss.

The subject of data set [1] is HeLa cells. Nature of the data set: Anti-proliferative assay, HeLa cells. In kind it is cell-based.
Data set [2] relates to A549 cells. Nature of the data set: Anti-proliferative SRB assay, A549 cells. Type of data set: cell-based. The protocol:
A549 cells were grown in RPMI-1640 supplemented with 10% FBS, 100 units/mL of penicillin, 100 μg/mL of streptomycin, and 2 mM L-glutamine. All cells were grown in a humidified atmosphere at 37° C. and 5% CO2. Growth inhibition was evaluated by the SRB assay^22. Cells were seeded in 96-well plates at 5000 cells per well in 100 μL of media and incubated at 37° C. for 24 hours. Cells were then treated with 0-100 μM of compounds at 37° C. for 48 hours. Cells were fixed with 50 μL cold 50% TCA, incubated at 4° C. for 1 hour, and washed 5 times with tap water. The 96-well plates were allowed to air dry and 100 μL 0.4% sulforhodamine B (SRB) in 1% acetic acid was added to each well. After 10 minutes, the unbound SRB was washed away with 1% acetic acid and the plates were dried. Protein-bound dye was solubilized by addition of 200 μL 10 mM Tris buffer and subsequent shaking at RT for 10 minutes. The absorbance of each well was measured at 490 nm by a plate reader. Percent cell survival was calculated for each concentration by the ratio of the measured absorbance to the absorbance of the untreated cells. Curve fitting was performed using Prism 4.0a software. IC50 is the 50% inhibition of cell mass without subtraction of the resistant cell population.
(In general: The SRB assay estimates cell density from bound dye.)

The nature of data set [3]: physchem. Type of data set: physicochemical. The following applies: for half-life / half-life at 1.5 μM: buffer. The protocol:
The stability of compounds of the invention was obtained by the following method. […] The solutions were incubated at 37° C.
Stability data was fit to equation 1, which illustrates our treatment of the data for 2a ([…]) as shown in FIG. 2 with first order decay constants (kFOD) given in Table 1.

For data set [4], the target named is PI3K. Nature of the data set: Inhibition of PI3K enzyme activity (32P ATP lipid phosphorylation, TLC). In kind it is biochemical. The following applies: compounds incubated 3 hours at 37° C. in PBS pH 6.8, then 30 minute PI3K incubation; read-out: Bioassay: PI3K IC50. How it is done: We incubated compounds for three hours at 37° C. in PBS, pH 6.8, followed a 30 minute incubation for PI3K activity using the assay system previously described which involves lipid phosphorylation by ^32P labeled ATP and thin layer chromatography, (see Yuan et al., Bioconjug. Chem. 16:669 (2005)).

The conditions of data set [5]: cited from earlier work.
Data set [6] is described as follows: Formation of wortmannin from WmC20 conjugates monitored by HPLC. The following applies: PBS pH 6.8, 37° C. The protocol:
The solutions were incubated in water bath at 37° C. and were analyzed at different time points with HPLC by injecting the solution (10 μL) together with 1 μL internal standard solution (containing 1 μg methyl 4-hydroxybezoate). The initial time point (0 hr) was taken before putting the tube in the water bath. HPLC gradients were adjusted to produce baseline separations. Before the injection, the samples were vortexed briefly and then spun down. Data using this method appear in FIG. 6.
Compounds (1.8 mg) and 4b (1.3 mg) (examples were weighted into the 1.5 mL tubes and dissolved in PBS buffer (pH 6.8, 400 μL). The solutions were incubated at 37° C. At different time point 20 μL solution was mixed with 1 μL internal standard solution in DMSO (containing 1 μg methyl 4-hydroxybenzoate) and analyzed by HPLC. The initial time point (0 hr) was taken before putting the tube in the water bath. Before the injection, the samples were vortexed briefly and then spun down.
The following HPLC methods were employed. HPLC (Varian Prostar 210 with a variable wavelength PDA 330 detector) employed reverse phase C18 columns (VYDAC, Cat.#: 218TP 1022 for synthesis; Varian, Cat. #: R0086200C5 for analysis) with water (Millipore, containing 0.1% trifloroacetic acid,) (buffer A) and acetonitrile (containing 20% buffer A) (buffer B) as elution buffer. System 1: buffer A/buffer B (80:20) isocratic for 5 minutes, linear gradient to buffer A/buffer B (20:80) over 40 minutes, then the gradient back to 80:20 in 5 minutes and isocratic for 5 minutes, flow: 4.9 ml/min, λmax: 418 nm (used for purification of 2a); System 2: buffer A/buffer B (80:20) isocratic for 5 minutes, linear gradient to buffer A (buffer B (20:80) over 25 minutes and then isocratic for 5 minutes, then the gradient back to 80:20 in 5 minutes and isocratic for 5 minutes, flow: 6.0 mi/min, λmax: 408 nm (used for purification of 2b); System 3: buffer A/buffer B (70:30) linear gradient to buffer A/buffer B (20:80) over 15 minutes, then gradient back to 70:30 in 3 minutes and isocratic for another 5 minutes, flow: 1.0 ml/min, λmax: 258 nm (System 4: buffer A/buffer B (99:1) linear gradient to buffer A/buffer B (40:60) over 46 minutes, then gradient back to […] in 5 minutes and isocratic for another 5 minutes, flow: 1.0 ml/min, λmax: 250 nm).

Where [7] appears, read: Homo sapiens, A549, 48 hours treatment.
The mark [8] stands for this setting: RPM tissue culture medium, data from Holleran et al.

Like-named read-outs stand apart in the source and are kept apart here.

In the case of “WmC20-N(H)-hexanoate-dextran [Example 18]”, the IC50 in data set [1] was determined as 58 ± 0.6 µM; in data set [2] (48 hours treatment), 64.7 ± 1.2 µM.
The compound `COCC1OC(=O)C(=CN(C)CCCCCC(=O)O)C2=C(O)C(=O)C3=C(C(OC(C)=O)CC4(C)C(=O)CCC34)C21C` (centres unmarked) [Example 1, wortmannin C20-N(Me)-hexanoic acid] returned a half-inhibitory concentration (IC50) in data set [1] (Homo sapiens, HeLa) of 10.9 ± 0.2 µM. In data set [3] (pH 6.8, Half Life), the half-life is 8.7 h and the half-life at 1.5 μM was 10.7 h. In data set [2] (setting [7]), the IC50 stood at 3.11 ± 0.17 µM.
Consider “WmC20-N(Me)-hexanoate-dextran [Example 17]”, for which the IC50 in data set [1] turned out to be 13.3 ± 0.4 µM; in data set [2] (48 hours treatment) it was 3.96 ± 0.23 µM.
On to “WmC20-NH-hexanoate-BSA conjugate [Example 13]”, for which the IC50 in data set [4] was > 1 µM.
On to `COCC1OC(=O)C(=CNCCCCCC(=O)O)C2=C(O)C(=O)C3=C(C(OC(C)=O)CC4(C)C(=O)CCC34)C21C` (centres unmarked) [Example 2, wortmannin C20-NH-hexanoic acid], for which the half-inhibitory concentration (IC50) in data set [1] (Homo sapiens, HeLa) was 63.8 ± 0.6 µM. In data set [3] (pH 6.8, Half Life), this compound had a half-life of 131 h and a half-life at 1.5 μM of 223 h. In data set [2] (setting [7]), this compound came in with a 50% inhibitory concentration (IC50) of 45.8 ± 0.3 µM.
For `COC[C@H]1OC(=O)c2coc3c2[C@@]1(C)C1=C(C3=O)[C@@H]2CCC(=O)[C@@]2(C)C[C@H]1OC(C)=O` [wortmannin], the IC50 came out at 41 ± 0.9 µM in data set [1] (Homo sapiens, HeLa) and 21.1 ± 0.5 µM in data set [2] (setting [7]). Further, the “KFOD (95% confidence intervals)” value is listed as 0.012 (0.0080-0.016) hr^−1 in data set [3] (PBS pH 6.8, 37° C.); 0.18 (0.16-0.20) hr^−1 in data set [3] (PBS, 0.065 mM BSA, 37° C.); 0.30 (0.23-0.38) hr^−1 in data set [3] (PBS, 10 mM NAcLys, 37° C.); 1.87 (0.62-3.13) hr^−1 in data set [3] (PBS, 10 mM Proline, 37° C.). Moreover, the half-life in data set [3] (pH 6.8, Half Life) is 57.8 h. The compound further showed a half-life at 2.26 mM in data set [3] (pH 6.8, Half Life) of 3.85 h. The KFOD in data set [5] (MEM tissue culture medium, data from Holleran et al.) is 5.04 h⁻¹; in data set [5] (setting [8]), 4.02 h⁻¹. The “half-lives in RPM and MEM tissue culture media” value in data set [5] (RPM and MEM, Holleran et al.) was “about 10 minutes”. Also, the “Half Life” value in data set [5] (setting [8]) is 0.172 h. In addition, in data set [5] (tissue culture media, Holleran et al.), the “half-life in tissue culture media” value is 8 to 13 min.
WmC2O-N(Me)-hexanoate-Bead [Example 16]: in data set [6], the “K1 (wortmannin generation, fit to Equation 2)” value is 0.308 (0.124-0.492) hr^−1 and the “K2 (wortmannin degradation, fit to Equation 2)” value is 0.148 (0.076-0.220) hr^−1.
As for WmC20-NH-hexanoate-IgG [Example 15], the IC50 in data set [4] is > 1 µM.
As to “Wm-N(Me)Hexanoate-BSA conjugate [Example 12]”, in data set [6], the “K1 (wortmannin generation, fit to Equation 2)” value is reported as 0.190 (0.128-0.253) hr^−1 and the “K2 (wortmannin degradation, fit to Equation 2)” value was 0.905 (0.707-1.103) hr^−1. For the same compound, in data set [4], the IC50 was found to be 0.0148 ± 0.0011 µM.
Turning to WmC20-N(Me)-hexanoate-IgG [Example 14], in data set [6], the “K1 (wortmannin generation, fit to Equation 2)” value was 0.024 (0.013-0.034) hr^−1 and the “K2 (wortmannin degradation, fit to Equation 2)” value is reported as 0.282 (0.166-0.398) hr^−1. Also, the IC50 in data set [4] was 0.13 µM.
